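Assay format: 96-well plates, 48-hour exposure. At the TGI there is no net growth.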
Experiments:
Experiment in all cases: NCI tumour cell line growth inhibition, 48 h
SN12K1 renal = tested on: SN12K1 renal
P388/ADR leukemia = tested on: P388/ADR leukemia
DMS 273 small cell lung = tested on: DMS 273 small cell lung
M19-MEL melanoma = tested on: M19-MEL melanoma
SNB-78 CNS = tested on: SNB-78 CNS
P388 leukemia = tested on: P388 leukemia

Row | SMILES | TGI (SN12K1 renal) [µM] | TGI (P388/ADR leukemia) [µM] | TGI (DMS 273 small cell lung) [µM] | TGI (M19-MEL melanoma) [µM] | TGI (SNB-78 CNS) [µM] | TGI (P388 leukemia) [µM]
1 | CC1[C@@H]2C[C@@H]3O[C@@]34[C@H]3CCC5Cc6nc7c(nc6C[C@@]5(C)C3(O)CC(=O)[C@@]24CO[C@]12OC(C)(C)CC2O)CC1CC[C@@H]2C3=C[C@H]4O[C@@]5(O[C@@](C)(CO)C[C@@H]5O)C(C)[C@@]4(O)[C@]3(C)[C@@H](O)CC2[C@]1(C)C7 (stereo not given in full) | 0.666 | 0.232 | 0.0177 | > 3.52 | 0.622 | 0.357
2 | Cc1cc(N)c2cc(NC(=O)CCCCCCCCC(=O)Nc3ccc4nc(C)cc(N)c4c3)ccc2n1 |  |  | > 45.3 | > 100 | > 100 | 
3 | CN(C)CCSc1nccc(-c2ccc(-c3ccnc(SCCN(C)C)n3)s2)n1 | 24.6 | 6.74 | 22.8 | 26.6 | 31 | 3.18
4 | O=c1cc(-c2ccccc2)[nH]c2c(F)ccc(F)c12 |  |  | > 100 | > 100 |  | 
5 | C[S+](C)C1(c2ccccc2)C(=O)c2ccccc2C1=O |  |  | > 100 | > 100 | > 100 | 

— PubChem BioAssay (NCI)
